In one test the target is Melanocortin receptor 3 (Homo sapiens, UniProt P41968).
Test [1] deals with Beta-2 adrenergic receptor (Homo sapiens, UniProt P07550).
Test [2] addresses 5-hydroxytryptamine receptor 2A (Homo sapiens, UniProt P28223). Type of test: functional, cell-based.
A further test addresses Vasopressin V2 receptor (Homo sapiens, UniProt P30518).
For the next test, the target named is T1, Thromboxane A2 receptor (Homo sapiens, UniProt P21731).
T1 sequence (P21731 whole entry): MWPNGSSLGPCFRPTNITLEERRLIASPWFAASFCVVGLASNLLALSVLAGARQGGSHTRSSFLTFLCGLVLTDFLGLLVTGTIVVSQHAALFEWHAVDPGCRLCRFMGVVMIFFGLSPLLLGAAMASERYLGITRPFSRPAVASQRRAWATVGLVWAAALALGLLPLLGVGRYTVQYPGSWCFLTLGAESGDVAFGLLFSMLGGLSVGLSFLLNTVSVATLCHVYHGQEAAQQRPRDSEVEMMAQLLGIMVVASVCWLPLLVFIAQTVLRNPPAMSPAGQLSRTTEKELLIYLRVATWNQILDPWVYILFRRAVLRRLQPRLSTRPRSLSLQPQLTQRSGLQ

The target in test [3] is T2, Alpha-2B adrenergic receptor (Homo sapiens, UniProt P18089).
T2 sequence (P18089 whole entry): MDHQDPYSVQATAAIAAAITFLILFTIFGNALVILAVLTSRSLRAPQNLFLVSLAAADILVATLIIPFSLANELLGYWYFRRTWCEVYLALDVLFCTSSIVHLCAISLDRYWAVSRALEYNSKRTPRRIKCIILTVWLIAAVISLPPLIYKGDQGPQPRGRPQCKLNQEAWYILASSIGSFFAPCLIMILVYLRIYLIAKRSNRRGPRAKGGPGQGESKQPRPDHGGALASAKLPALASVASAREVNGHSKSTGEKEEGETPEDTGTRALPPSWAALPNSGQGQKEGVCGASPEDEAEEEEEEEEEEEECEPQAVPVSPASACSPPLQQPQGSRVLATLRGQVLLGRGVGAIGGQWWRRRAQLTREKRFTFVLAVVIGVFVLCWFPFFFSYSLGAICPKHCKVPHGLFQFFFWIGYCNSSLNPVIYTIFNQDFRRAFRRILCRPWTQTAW

A further test deals with T3, Adenosine receptor A3 (Homo sapiens, UniProt P0DMS8).
T3 sequence (P0DMS8 whole entry): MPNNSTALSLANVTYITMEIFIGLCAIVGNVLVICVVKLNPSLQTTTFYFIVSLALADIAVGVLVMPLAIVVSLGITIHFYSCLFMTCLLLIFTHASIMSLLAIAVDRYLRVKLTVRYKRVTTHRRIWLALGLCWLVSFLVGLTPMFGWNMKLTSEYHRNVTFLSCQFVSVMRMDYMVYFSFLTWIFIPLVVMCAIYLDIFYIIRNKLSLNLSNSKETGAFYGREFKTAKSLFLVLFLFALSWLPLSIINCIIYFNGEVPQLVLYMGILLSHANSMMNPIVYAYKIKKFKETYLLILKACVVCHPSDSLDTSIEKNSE

Test [4] concerns the target T4, 5-hydroxytryptamine receptor 1A (Homo sapiens, UniProt P08908).
T4 sequence (P08908 whole entry): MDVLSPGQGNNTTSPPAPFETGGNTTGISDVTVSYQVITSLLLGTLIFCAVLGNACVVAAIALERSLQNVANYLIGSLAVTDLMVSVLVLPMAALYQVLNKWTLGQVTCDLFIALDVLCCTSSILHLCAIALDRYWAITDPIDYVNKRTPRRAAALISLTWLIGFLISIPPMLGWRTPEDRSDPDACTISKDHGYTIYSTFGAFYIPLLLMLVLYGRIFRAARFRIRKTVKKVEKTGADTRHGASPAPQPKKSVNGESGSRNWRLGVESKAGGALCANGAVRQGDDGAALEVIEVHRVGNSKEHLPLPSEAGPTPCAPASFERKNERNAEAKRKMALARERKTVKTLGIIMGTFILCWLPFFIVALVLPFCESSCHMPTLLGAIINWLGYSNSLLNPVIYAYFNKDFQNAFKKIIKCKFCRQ
It counts as functional, cell-based.

Test [5] has as its target Growth hormone secretagogue receptor type 1 (Homo sapiens, UniProt Q92847).
The target of a further test is T5, Progesterone receptor (Homo sapiens, UniProt P06401).
T5 sequence (P06401 whole entry): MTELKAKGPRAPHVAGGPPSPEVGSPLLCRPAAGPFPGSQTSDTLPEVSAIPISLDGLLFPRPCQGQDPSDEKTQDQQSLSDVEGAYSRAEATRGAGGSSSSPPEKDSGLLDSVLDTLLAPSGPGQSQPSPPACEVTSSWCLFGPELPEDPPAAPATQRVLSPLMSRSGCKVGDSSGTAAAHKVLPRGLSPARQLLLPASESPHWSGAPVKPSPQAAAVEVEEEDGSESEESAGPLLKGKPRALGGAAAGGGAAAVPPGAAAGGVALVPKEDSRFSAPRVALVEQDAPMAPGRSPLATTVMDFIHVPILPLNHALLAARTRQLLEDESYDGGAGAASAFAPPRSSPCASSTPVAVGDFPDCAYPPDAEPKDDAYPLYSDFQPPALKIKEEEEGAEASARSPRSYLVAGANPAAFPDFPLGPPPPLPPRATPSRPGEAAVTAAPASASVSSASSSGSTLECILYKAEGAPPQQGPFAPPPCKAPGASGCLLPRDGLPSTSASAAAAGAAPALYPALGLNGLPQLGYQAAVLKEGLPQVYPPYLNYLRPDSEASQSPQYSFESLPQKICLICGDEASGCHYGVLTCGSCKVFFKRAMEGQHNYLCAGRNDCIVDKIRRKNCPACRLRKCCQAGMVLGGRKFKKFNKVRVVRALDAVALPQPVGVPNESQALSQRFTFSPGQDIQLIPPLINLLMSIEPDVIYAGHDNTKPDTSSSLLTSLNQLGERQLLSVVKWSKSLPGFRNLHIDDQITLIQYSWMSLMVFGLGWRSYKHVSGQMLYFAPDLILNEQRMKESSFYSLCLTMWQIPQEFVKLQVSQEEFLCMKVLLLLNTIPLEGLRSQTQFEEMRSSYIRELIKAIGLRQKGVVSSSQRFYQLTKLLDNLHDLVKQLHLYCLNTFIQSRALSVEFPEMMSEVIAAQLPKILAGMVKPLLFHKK
It counts as functional.
Also: assay procedure not described here.

Melanocortin receptor 3, sequence (P41968 whole entry): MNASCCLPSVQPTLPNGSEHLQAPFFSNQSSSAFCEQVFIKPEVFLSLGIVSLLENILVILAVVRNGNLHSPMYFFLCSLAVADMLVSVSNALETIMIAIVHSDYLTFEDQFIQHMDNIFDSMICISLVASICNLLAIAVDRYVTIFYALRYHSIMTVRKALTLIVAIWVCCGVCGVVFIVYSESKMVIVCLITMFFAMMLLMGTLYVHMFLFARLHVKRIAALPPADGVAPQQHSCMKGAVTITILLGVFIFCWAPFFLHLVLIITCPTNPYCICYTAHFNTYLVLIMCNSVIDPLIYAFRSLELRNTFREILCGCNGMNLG
5-hydroxytryptamine receptor 2A, sequence (P28223 whole entry): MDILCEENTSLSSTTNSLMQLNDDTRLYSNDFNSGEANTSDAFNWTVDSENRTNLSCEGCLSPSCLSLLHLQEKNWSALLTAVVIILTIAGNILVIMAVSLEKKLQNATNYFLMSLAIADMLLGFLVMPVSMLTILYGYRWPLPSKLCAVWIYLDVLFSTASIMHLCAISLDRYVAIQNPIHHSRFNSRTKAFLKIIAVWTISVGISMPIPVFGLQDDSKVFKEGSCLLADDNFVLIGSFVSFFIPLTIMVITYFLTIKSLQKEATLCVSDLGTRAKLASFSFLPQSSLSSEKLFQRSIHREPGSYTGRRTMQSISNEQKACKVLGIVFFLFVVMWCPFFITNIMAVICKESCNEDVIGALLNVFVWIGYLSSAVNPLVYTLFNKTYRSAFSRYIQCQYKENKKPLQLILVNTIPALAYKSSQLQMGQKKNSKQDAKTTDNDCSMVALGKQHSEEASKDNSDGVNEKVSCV
Growth hormone secretagogue receptor type 1, sequence (Q92847 whole entry): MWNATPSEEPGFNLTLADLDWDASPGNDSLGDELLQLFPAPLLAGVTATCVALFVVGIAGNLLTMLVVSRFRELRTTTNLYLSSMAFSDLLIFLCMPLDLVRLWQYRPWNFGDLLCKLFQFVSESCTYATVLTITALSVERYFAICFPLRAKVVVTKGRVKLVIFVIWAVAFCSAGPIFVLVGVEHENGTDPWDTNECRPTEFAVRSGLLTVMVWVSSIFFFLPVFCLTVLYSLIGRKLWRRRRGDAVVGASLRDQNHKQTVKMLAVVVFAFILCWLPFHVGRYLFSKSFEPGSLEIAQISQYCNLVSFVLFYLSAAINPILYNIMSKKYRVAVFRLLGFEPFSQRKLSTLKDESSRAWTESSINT

Consider `CC1=CC(=O)c2ccccc2C1=O` [MENADIONE], for which the AC50 (at Melanocortin receptor 3; in [1]; in test [2]; at Vasopressin V2 receptor; on Thromboxane A2 receptor; in [3]) was > 10 µM throughout. Besides, the AC50 is 13.7 µM at Adenosine receptor A3, > 10 µM in test [4], > 10 µM in [5] and > 30 µM at Progesterone receptor.

As to `O=C(C[S+]([O-])C(c1ccccc1)c1ccccc1)NO` (stereo not given), the concentration at half-maximal activity (AC50) (on Melanocortin receptor 3; in test [1]; in test [2]; on Vasopressin V2 receptor; at Thromboxane A2 receptor; in [3]) was > 30 µM each time. Further, the AC50 (at Adenosine receptor A3; in [4]; in test [5]; on Progesterone receptor) was > 30 µM throughout.

For `CC(=O)NS(=O)(=O)c1ccc(N)cc1` [SULFACETAMIDE], the AC50 (at Melanocortin receptor 3; in test [1]; in test [2]; on Vasopressin V2 receptor; at Thromboxane A2 receptor; in test [3]) was > 10 µM in each case. The AC50 (on Adenosine receptor A3; in test [4]; in [5]; at Progesterone receptor) was > 10 µM throughout.

In the case of `CN1CCN(C(=O)OC2c3nccnc3C(=O)N2c2ccc(Cl)cn2)CC1` (stereo not given) [ZOPICLONE], the AC50 is > 30 µM at Melanocortin receptor 3; > 10 µM in [1]; > 30 µM in test [2]; > 30 µM on Vasopressin V2 receptor; > 30 µM at Thromboxane A2 receptor; > 30 µM in [3]. In addition, the concentration at half-maximal activity (AC50) on Adenosine receptor A3 was 18.3 µM; in [4], > 10 µM; in test [5] it was > 30 µM; on Progesterone receptor, > 30 µM.

With `CC(C)C(=O)OCC(=O)[C@@]12O[C@H](C3CCCCC3)O[C@@H]1C[C@H]1[C@@H]3CCC4=CC(=O)C=C[C@]4(C)[C@H]3[C@@H](O)C[C@@]12C` [CICLESONIDE], the half-maximal activity concentration (AC50) (on Melanocortin receptor 3; in test [1]; in [2]; on Vasopressin V2 receptor; on Thromboxane A2 receptor; in test [3]) was > 10 µM each time. Moreover, the AC50 is 4.2 µM at Adenosine receptor A3, > 10 µM in test [4], > 10 µM in test [5] and 7.1 µM at Progesterone receptor.

TOCOFERSOLAN: the concentration at half-maximal activity (AC50) (at Melanocortin receptor 3; in test [1]; in test [2]; on Vasopressin V2 receptor; at Thromboxane A2 receptor; in [3]) was > 30 µM throughout. Also, the AC50 (on Adenosine receptor A3; in test [4]; in test [5]; at Progesterone receptor) was > 30 µM in each case.

With `CN1CCCN=C1COC(=O)C(O)(c1ccccc1)C1CCCCC1` (stereo not given) [OXYPHENCYCLIMINE], the concentration at half-maximal activity (AC50) (at Melanocortin receptor 3; in test [1]; in test [2]; on Vasopressin V2 receptor; at Thromboxane A2 receptor; in [3]) was > 10 µM throughout. The AC50 (on Adenosine receptor A3; in test [4]; in test [5]; at Progesterone receptor) was > 10 µM each time.

For `CN1CC[C@]23CCCC[C@H]2[C@H]1Cc1ccc(O)cc13` [LEVORPHANOL], the half-maximal activity concentration (AC50) was > 10 µM at Melanocortin receptor 3; > 10 µM in test [1]; > 10 µM in [2]; > 10 µM at Vasopressin V2 receptor; > 10 µM at Thromboxane A2 receptor; > 30 µM in test [3]. The concentration at half-maximal activity (AC50) (on Adenosine receptor A3; in test [4]; in test [5]; at Progesterone receptor) was > 10 µM throughout.

The AC50 is the concentration at which the activity in the assay is half-maximal. A low value points to greater potency.

The values are drawn from ChEMBL document CHEMBL5291721, “A preclinical secondary pharmacology resource illuminates target-adverse drug reaction associations of marketed drugs” (Nat Commun, 2023).
